# Results as given in publication PMC7555970, “Design, Synthesis and Biological Evaluation of Biphenylglyoxamide-Based Small Molecular Antimicrobial Peptide Mimics as Antibacterial Agents” (International Journal of Molecular Sciences, 2020).
# Where two headings read alike, the source gives them in different places.
# Tests used:
# S. aureus (SA38) [1] = details: cited from earlier work
# P. aeruginosa (PA01) [2] = details: cited from earlier work
# E. coli (K12) [3] = details: cited from earlier work
# Gram-negative bacteria = tested on: Gram-negative bacteria; design: method as in doi:10.1002/slct.201700336, PMID 28203673; details: previously reported ref 43, 44; cited from earlier work
# S. aureus (SA38) [4] = assay: Minimum inhibitory concentration (MIC) assay against S. aureus; assay type: cell-based, Staphylococcus aureus; details: Staphylococcus aureus
# Protocol: (§1) The antimicrobial activity of the compounds was evaluated by MIC assay using the procedure described by Clinical and Laboratory Standards Institute (CLSI). A single colony of bacteria was cultured overnight in trypticase soy broth (TSB; Oxoid, Basingstoke, UK) at 37 °C with shaking. The resulting bacterial culture was collected by centrifugation and resuspended in TSB twice. The optical density (OD) of the resulting culture was adjusted to OD660 = 0.1 in TSB (which is equivalent to 10^8 colony forming unit (CFU)/mL bacteria). It was further diluted to 10^6 CFU/mL in TSB. 100 µL of the bacterial solution was then added to wells of a 96-well plate (Costar; Sigma-Aldrich, St Louis, MO, USA) containing 100 µL serially diluted peptide mimic, with final concentration ranging from 1 to 250 µM. Wells with bacteria but no compound were used as negative control while wells with only media were set as blank. The plates were then wrapped with parafilm to prevent evaporation and incubated with shaking at 120 rpm at 37 °C for 18–24 h, and the data were recorded by measuring the OD value at 660 nm using a FLUOstar Omega (BMG Labtech, Mornington, Victoria, Australia) microplate reader. […] Each experiment was performed in triplicate and was repeated in three independent experiments.
# P. aeruginosa (PA01) [5] = assay: Minimum inhibitory concentration (MIC) assay against P. aeruginosa; assay type: cell-based; details: Pseudomonas aeruginosa
# Protocol: as §1
# E. coli (K12) [6] = assay: Minimum inhibitory concentration (MIC) assay against E. coli; assay type: cell-based; details: Escherichia coli
# Protocol: as §1
# [7] = tested on: established S. aureus biofilms; assay: Biofilm disruption assay (crystal violet staining), S. aureus; assay type: cell-based, Staphylococcus aureus; details: 24 h treatment
# Protocol: (§2) Bacterial cultures (S. aureus and E. coli) were grown in Muller Hinton broth (MHB; Oxoid, Basingstoke, UK) media overnight at 37 °C with shaking at 120 rpm. Cultures were diluted (1:20) in MHB medium and 200 µL aliquots were dispensed to wells in a flat bottom 96-well plate (Costar; Sigma-Aldrich, St Louis, MO, USA). Biofilm was then grown in the 96-well plate at 37 °C overnight. After that, loosely bound cells were washed away with 1x phosphate-buffered saline (PBS) and cultures were then supplemented with different concentrations of test compounds dissolved in DMSO and incubated for a further 24 h with shaking at 120 rpm. Biofilms adhered on the plate substratum were quantified using crystal violet staining as described previously. The experiment was performed in triplicate.
# [8] = tested on: preformed E. coli biofilm; assay: Biofilm disruption assay (crystal violet staining), E. coli; assay type: cell-based, Escherichia coli; details: 4× MIC (64 μM), 24 h treatment
# Protocol: as §2
# [9] = tested on: cytoplasmic membrane of S. aureus; assay: Cytoplasmic membrane permeability (diSC3-5 dye release) assay; assay type: cell-based, Staphylococcus aureus; details: 1× and 2× MIC
# Protocol: Bacterial cytoplasmic membrane permeability was determined using membrane potential-sensitive dye diSC3–5 (3,3′-dipropylthiadicarbocyanine iodide), which penetrates inside bacterial cells depending on the membrane potential gradient of the cytoplasmic membrane. The procedure of this assay follows the method previously described by Wu et al. with slight modifications. Bacteria were grown in MHB to mid-log phase by incubating with shaking at 37 °C for […]. Following incubation, bacteria were washed with 5 mM HEPES containing 20 mM glucose at pH 7.2 and resuspended in the same buffer to an OD600 0.05–0.06 (yielding a final concentration of 10^7 CFU/mL). The dye diSC3–5 was added at 4 μM to the bacterial suspension. The suspensions were incubated at room temperature for 1 h in darkness for maximum dye take-up by the bacterial cells. 100 mM KCl was then added to balance the K^+ outside and inside the bacterial cell. 100 μL of bacterial suspension was added in a 96-well microtiter plate and with equal volume of antimicrobial compounds. DMSO (10%) was set as a positive control while dye and only bacterial cells were set as negative control. Fluorescence due to release of dye was measured with a luminescence spectrophotometer at 3 min intervals at an excitation wavelength of 621 nm and an emission wavelength of 670 nm.
# S. aureus = assay: Time-kill kinetic / cell viability count assay; assay type: cell-based, Staphylococcus aureus
# Protocol: The number of viable cells was confirmed by serially diluting aliquots of bacteria in D/E neutralizing broth (Remel, Lenexa, KS, USA) and plating onto Tryptic Soy Agar (Oxoid, Basingstoke, UK) containing phosphatidylcholine (0.7 g/L) and Tween 80 (5 mL/L). The plates were incubated at 37 °C overnight and numbers of live bacteria were enumerated and expressed as CFU/mL. The experiment was performed in triplicate.
# [10] = Tethered bilayer lipid membranes (tBLMs) assay, zwitterionic membrane; details: for shift in membrane conductance: zwitterionic POPC tBLMs, concentrations as low as 100 nM; for changes of membrane conduction: zwitterionic membrane, higher concentrations (1–100 μM); for membrane capacitance: zwitterionic tBLMs, saturating concentrations
# Protocol: (§3) Changes in membrane conduction and capacitance were measured using tethered bilayer lipid membranes (tBLMs) in association with AC electrical impedance spectroscopy techniques. Sparsely tethered tBLMs were prepared using a zwitterionic 1-palmitoyl-2-oleoyl-glycero-3-phosphocholine (POPC) (Avanti Lipids, USA) or a mixture of 30% palmitoyl-oleoyl-phosphatidylglycerol (POPG) (Avanti Lipids, USA) lipids with 70% POPC in order to create a negatively charged tBLM [66, 67]. To do this, gold-patterned polycarbonate slides were coated with tethered benzyl-disulfide (tetra-ethyleneglycol) n = 2 C20-phytanyl tethers:benzyl-disulfide-tetra-ethyleneglycol-OH spacers in the ratio of 1:10 (SDx Tethered Membranes Pty Ltd., Australia). A 3 mM solution of a mobile lipid phase POPC, or a 3 mM solution of mobile phase POPC/POPG (70:30), (Avanti Lipids, USA) in 100% ethanol was then incubated with the tethering chemistries. Lipids were left to incubate with the tethering chemistries for 2 min before being washed with 3 × […] of phosphate-buffered saline (PBS). Prior to the addition of the compounds, membrane stability was confirmed by 5 × 100 µL washes of the PBS vehicle. AC electrical impedance spectrometry (EIS) was then used to monitor any changes in membrane impedances as a result of adding the test compounds in increasing concentrations.
# (§4) For EIS measures, a 50 mV peak-to-peak AC excitation from 0.1 to 2000 Hz with four steps per decade were recorded using a TethaPod™ operated with TethaQuick™ software (SDx Tethered Membranes Pty Ltd., Australia). The data were fitted to an equivalent circuit consisting of a Constant Phase Element (CPE), to represent the imperfect capacitance of the gold tethering electrode, in series with a Resistor/Capacitor network to represent the lipid bilayer membrane. Fitting of the phase and impedance data to the equivalent circuit was completed with a proprietary adaptation of a Lev Mar fitting routine. To account for variations in basal membrane conditions, data are normalised to a baseline conduction and capacitance values directly before the addition of each compound.
# [11] = Tethered bilayer lipid membranes (tBLMs) assay, negatively charged membrane; details: for changes in membrane conductance: 30% POPG membranes, concentrations <1 μM; for changes of membrane conduction: negatively charged membranes, higher concentrations (1–100 μM), compared to zwitterionic; for membrane capacitance: negatively charged tBLMs, saturating concentrations
# Protocol: as §3, §4
# [12] = tested on: MRC-5 normal human lung fibroblasts; assay: MTT toxicity assay; assay type: cell-based; details: Homo sapiens, MRC5, 72 h, 72 h drug incubation, read-out: IC50 against MRC-5 normal human lung fibroblasts
# Protocol: The toxicity of the compounds was measured using an MTT (3-(4,5-dimethylthiazol-2-yl)-2,5-diphenyltetrazolium bromide) (Sigma Aldrich, St Louis, MO, USA) colorimetric assay against normal human lung fibroblasts MRC-5 cells. The cells were cultured in minimal essential medium (MEM; Sigma Aldrich, St Louis, MO, USA) containing 10% foetal bovine serum (FBS). The cells were maintained at 37 °C in 5% CO2 as an adherent monolayer and was passaged upon reaching confluence by standard cell culture techniques. MRC-5 cells were seeded at 5000 cells/well in 96-well plates to ensure full confluence (quiescence) and left overnight to adhere to the plate wells. The adherent cells were treated with 1–500 µM of compounds by dissolving in DMSO and serially diluting with media. The final concentration of DMSO was 0.5% (v/v). After 72 h drug incubation, […] stock MTT solution (5 mg/mL) was added and the cells were incubated for another 3.5–4 h. MTT solution-containing media was carefully aspirated without displacing the purple crystals from the bottom and […] acid-isopropanol was added to all wells and mixed slowly by shaking with an orbital shaker to dissolve the dark blue crystals. The metabolic activity was detected by spectrophotometric analysis by assessing the read absorbance (590/620 nm) on an EnSight plate reader (PerkinElmer, Waltham, MA, USA) and cell viability was expressed as a percentage of untreated control cells. The determination of IC50 values was performed using GraphPad Prism 6 (GraphPad, San Diego, CA, USA). Each experiment was performed in triplicate and was repeated in three independent experiments.
# [13] = no antibacterial activity at the highest concentration tested (250 μM) ref 43
# [14] = any tested concentration (1×, 2× and 4× MIC)
# [15] = previously reported values ref 51
Compound,MIC (S. aureus (SA38) [4]) [µM],MIC (P. aeruginosa (PA01) [5]) [µM],MIC (E. coli (K12) [6]) [µM],disruption of preformed S. aureus biofilms ([7]; 4× MIC (32 μM)) [%],increase in diSC3-5 fluorescence intensity (cytoplasmic membrane disruption) [9],changes of membrane conduction [10],changes of membrane conduction [11],IC50 [12] [µM],further results
CCCCCCCCS(=O)(=O)Nc1ccccc1C(=O)C(=O)NCCC[N+](C)(C)C [Compound 4a],–,–,–,–,–,–,–,–,MIC against S. aureus (S. aureus (SA38) [1]; previously synthesised N-sulfonylphenylglyoxamide iodide salts ref 43): 250 µM; MIC against P. aeruginosa (P. aeruginosa (PA01) [2]; [13]): > 250 µM; MIC against E. coli (E. coli (K12) [3]; [13]): > 250 µM
N=C(N)NCCCNC(=O)C(=O)c1cc(Br)ccc1NC(=O)c1ccc2ccccc2c1 [Compound 5],–,–,–,–,–,–,–,–,MIC against S. aureus (S. aureus (SA38) [1]; previously reported ref 44): 12 µM; antibacterial activity against Gram-negative bacteria (Gram-negative bacteria): no antibacterial activity
"CCCCCCCCS(=O)(=O)Nc1ccc(-c2ccc(Cl)cc2)cc1C(=O)C(=O)NCCC[N+](C)(C)C.[I-] [Compound 15c, 3-(2-(4’-Chloro-4-(octylsulfonamido)-[1,1’-biphenyl]-3-yl)-2-oxoacetamido)-N,N,N-trimethylpropan-1-aminium iodide]",8,63,16,35,largest increase in fluorescence intensity,more pronounced,lower,95.8,disruption of preformed E. coli biofilm [8]: insignificant amount; reduction in bacterial numbers (S. aureus; 1× MIC): 1 log; reduction in bacterial numbers (S. aureus; 2× MIC): 2 log; shift in membrane conductance [10]: 2.5 ×; membrane capacitance [10]: large increase; changes in membrane conductance [11]: notably absent; membrane capacitance [11]: large increase
"CCCCCCCCS(=O)(=O)Nc1ccc(-c2ccc3ccccc3c2)cc1C(=O)C(=O)NCCC[N+](C)(C)C.[I-] [Compound 15d, N,N,N-Trimethyl-3-(2-(5-(naphthalen-2-yl)-2-(octylsulfonamido)phenyl)-2-oxoacetamido)propan-1-aminium iodide]",8,250,63,–,–,more pronounced,lower,112,"disruption of preformed S. aureus biofilms [7, 14]: failed to disrupt any; shift in membrane conductance [10]: 2.5 ×; membrane capacitance [10]: large increase; changes in membrane conductance [11]: notably absent; membrane capacitance [11]: large increase"
"CCCCCCCCS(=O)(=O)Nc1ccc(-c2ccccc2)cc1C(=O)C(=O)NCCCNC(=N)N.Cl [Compound 22a, N-(3-Guanidinopropyl)-2-(4-(octylsulfonamido)-[1,1’-biphenyl]-3-yl)-2-oxoacetamide hydrochloride]",8,63,63,–,–,more pronounced,lower,75.5,"disruption of preformed S. aureus biofilms [7, 14]: failed to disrupt any"
"CCCCCCCCS(=O)(=O)Nc1ccc(-c2ccc(F)cc2)cc1C(=O)C(=O)NCCCNC(=N)N.Cl [Compound 22b, 2-(4’-Fluoro-4-(octylsulfonamido)-[1,1’-biphenyl]-3-yl)-N-(3-guanidinopropyl)-2-oxoacetamide hydrochloride]",8,63,16,39,modest,–,–,76,disruption of preformed E. coli biofilm [8]: insignificant amount; reduction in bacterial numbers (S. aureus; 1× and 2× MIC): less than 1 log
"CCCCCCCCS(=O)(=O)Nc1ccc(-c2ccc3ccccc3c2)cc1C(=O)C(=O)NCCCNC(=N)N.Cl [Compound 22d, N-(3-Guanidinopropyl)-2-(5-(naphthalen-2-yl)-2-(octylsulfonamido)phenyl)-2-oxoacetamide hydrochloride]",8,> 250,> 250,50,modest,–,–,49.5,reduction in bacterial numbers (S. aureus; 1× and 2× MIC): less than 1 log
pexiganan [pexiganan (MSI-78)],–,–,–,–,–,–,–,–,MIC S. aureus (S. aureus (SA38) [1]; [15]): 3.2 to 6.5 µM; MIC P. aeruginosa (P. aeruginosa (PA01) [2]; [15]): 3.2 to 6.5 µM; MIC E. coli (E. coli (K12) [3]; [15]): 3.2 to 6.5 µM
